From patent publication US11084795B2, “CFTR regulators and methods of use thereof” (The Regents of the University of California, priority 2015, dated 2021)
In brackets after ≈: the same amount, converted by molar mass. Entries after “also recorded” stand apart in the source; their conditions may differ. Like-named read-outs stand apart in the source and are kept apart here.

What was measured:
[1] = system: cellular cAMP; experiment: GloSensor cAMP assay in FRT cells; assay type: cell-based, rat; conditions: 5 μM compound, 10 min, without or with 100 nM forskolin
Protocol: Intracellular cAMP activity was measured using a GloSensor luminescence assay (Promega Corp., Madison, Wisconson, USA). FRT null cells were stably transfected with the pGloSensor cAMP plasmid and plated onto white 96-well microplates and grown to confluence. Cells were washed three times with PBS and incubated with 5 μM CFTRact-J027 for 10 min in the absence and presence of 100 nM forskolin. cAMP was assayed according to the manufacturer's instructions.
Intracellular cAMP activity was measured using a GloSensor luminescence assay (Promega Corp., Madison, Wis., USA). FRT cells stably transfected with the pGloSensor cAMP plasmid (Promega Corp.) were cultured in white 96-well microplates (Corning Costar) overnight. Cells were then washed three times with PBS and incubated with 5 μM test compound for 10 min in the absence and presence of 100 nM forskolin.
cAMP assay. Intracellular cAMP activity was measured using a GloSensor luminescence assay (Promega Corp., Madison, Wisconson, USA). FRT null cells were stably transfected with the pGloSensor cAMP plasmid and plated onto white 96-well microplates and grown to confluence. […]
cAMP and cytotoxicity assays. Intracellular cAMP activity was measured using a GloSensor luminescence assay (Promega Corp., Madison, Wis., USA). […]

[2] = system: intestinal fluid secretion; experiment: Closed mid-jejunal loop model of intestinal fluid secretion; assay type: in vivo, mouse; conditions: 90 min
Protocol: (§1) Mice (wildtype or CF) were given access to 5% dextrose water but not solid food for 24 h before experiments. Mice were anesthetized with isoflurane and body temperature was maintained during surgery at 36-38° C. using a heating pad. A small abdominal incision was made to expose the small intestine, and closed mid-jejunal loops (length 2-3 cm) were isolated by sutures. Loops were injected with 100 μL vehicle alone or 100 μg CFTRact-J027 in vehicle. The abdominal incision was closed with sutures, and mice were allowed to recover from anesthesia. Intestinal loops were removed at 90 min and loop length and weight were measured to quantify fluid secretion. Intestinal absorption was measured in CF mice (to prevent secretion) as described above, except that the loops were removed at 0 or 30 min. Absorption was calculated as 1−(loop weight at 0 min−loop weight at 30 min)/loop weight at 0 min.
In vivo intestinal secretion and absorption. Mice (wildtype or CF) were given access to 5% dextrose water but not solid food for 24 h before experiments. […] Intestinal loops were removed at 90 min and loop length and weight were measured to quantify fluid secretion. Intestinal absorption was measured in CF mice (to prevent secretion) as described above, except that the loops were removed at 0 or 30 min. Absorption was calculated as 1−(loop weight at 0 min−loop weight at 30 min)/loop weight at 0 min. […]

[3] = system: intestinal fluid absorption; experiment: Closed mid-jejunal loop model of intestinal fluid absorption in cystic fibrosis mice; assay type: in vivo, mouse; conditions: 30 min
Protocol: as §1
In vivo intestinal secretion and absorption. Mice (wildtype or CF) were given access to 5% dextrose water but not solid food for 24 h before experiments. […] Intestinal loops were removed at 90 min and loop length and weight were measured to quantify fluid secretion. Intestinal absorption was measured in CF mice (to prevent secretion) as described above, except that the loops were removed at 0 or 30 min. Absorption was calculated as 1−(loop weight at 0 min−loop weight at 30 min)/loop weight at 0 min.

[4] = system: FRT cells; experiment: Alamar Blue cytotoxicity assay in FRT cells; assay type: cell-based, rat
[5] = 7-day oral administration toxicity study in mice; assay type: in vivo, mouse
Description: Chronic administration and toxicity studies.

[6] = system: tear fluid secretion; assay type: in vivo, mouse; conditions: wild-type mice; B074 100 μM, J027 and K089 50 μM, VX-770 10 μM, cholera toxin 0.1 μg/mL, forskolin 20 μM, IBMX 250 μM
[7] = system: scopolamine-treated mice; experiment: Scopolamine-induced mouse model of acute constipation; assay type: in vivo
Protocol: Control mice were treated with vehicle only.

[8] = Solubility; assay type: physicochemical; conditions: read-out: solubility limit
[9] = system: loperamide-treated mice; experiment: Loperamide-induced mouse model of constipation; conditions: for ED50: Mus musculus
[10] = 10 mg/kg orally once per day, 7 days, mean

Q: With `Nc1ccc([N+](=O)[O-])cc1-c1nc2ccccc2n(Cc2ccccc2)c1=O` [CFTRact-J027, 3-(2-amino-5-nitrophenyl)-1-benzylquinoxalin-2(1H)-one] as the compound, how does the “effect on cellular cAMP” value [1] read?
A: without causing elevation of cytoplasmic cAMP; also recorded: does not elevate cellular cAMP

Q: What about the “intestinal fluid accumulation compared to equal doses of lubiprostone or linaclotide” value ([2]; 100 μg per loop) of the same compound?
A: Significantly greater intestinal fluid accumulation

Q: What about the “loop fluid secretion in cystic fibrosis mice” value ([2]; cystic fibrosis mice) of the same compound?
A: without effect

Q: And the intestinal fluid absorption [3]?
A: did not affect intestinal fluid absorption

Q: And the “cytotoxicity (Alamar Blue)” value ([4]; 20 μM)?
A: did not show cytotoxicity

Q: And the in vitro cytotoxicity ([4]; 25 μM)?
A: did not show significant in vitro cytotoxicity

Q: What about the “non-cytotoxic concentration relative to EC50 for CFTR activation” value ([4]; 25 μM) of the same compound?
A: > 100 fold

Q: What about the in vitro cytotoxicity ([4]; up to 100 μM, 1 or 24 h) of the same compound?
A: no appreciable in vitro cytotoxicity

Q: And the “toxicity after chronic administration” value ([5]; 10 mg/kg oral)?
A: without apparent toxicity

Q: And the ALP [5, 10]?
A: 53 U/L

Q: What about the ALT [5, 10] of the same compound?
A: 44 U/L

Q: And the AST [5, 10]?
A: 105 U/L

Q: What about the Albumin [5, 10] of the same compound?
A: 2.9 g/dL

Q: What about the BUN [5, 10] of the same compound?
A: 18.4 mg/dL

Q: And the Bicarbonate [5, 10]?
A: 16 mmol/L

Q: What about the CK [5, 10] of the same compound?
A: 312 U/L

Q: And the Calcium [5, 10]?
A: 8.5 mg/dL

Q: And the Chloride [5, 10]?
A: 115 mmol/L

Q: What about the Cholesterol [5, 10] of the same compound?
A: 121 mg/dL

Q: And the Creatinine [5, 10]?
A: 0.2 mg/dL

Q: What about the Globulin [5, 10] of the same compound?
A: 2.2 g/dL

Q: And the Glucose [5, 10]?
A: 164 mg/dL

Q: And the Hemoglobin [5, 10]?
A: 12.8 g/dL

Q: And the Leukocytes [5, 10]?
A: 1.9 ± 10^3/μL

Q: What about the Phosphorus [5, 10] of the same compound?
A: 6.8 mg/dL

Q: What about the Potassium [5, 10] of the same compound?
A: 4.4 mmol/L

Q: And the Sodium [5, 10]?
A: 151 mmol/L

Q: What about the Thrombocytes [5, 10] of the same compound?
A: 900 ± 10^3/μL

Q: And the Total bilirubin [5, 10]?
A: 0.1 mg/dL

Q: What about the Total protein [5, 10] of the same compound?
A: 5.2 g/dL

Q: And the lung water content ([5]; 7-day treated mice)?
A: normal lung water content

Q: What about the “major serum chemistry and blood parameters” value ([5]; 7-day treated mice) of the same compound?
A: did not affect the major serum chemistry and blood parameters

Q: What about the “body weight and airway/lung fluid accumulation” value ([5]; 7-day treated mice, 10 mg/kg oral) of the same compound?
A: nor did it change body weight or produce airway/lung fluid accumulation

Q: And the “tear fluid secretion after single topical dose” value [6]?
A: increased tear fluid secretion by approximately two-fold for at least four hours

Q: What about the “efficacy, ip after development of constipation” value ([7]; 10 mg/kg ip 1 h after loperamide or scopolamine) of the same compound?
A: effective

Q: What about the “stool parameters, oral 1 h prior to scopolamine” value ([7]; 10 mg/kg po) of the same compound?
A: normalization of stool parameters

Q: What about the “efficacy, oral after development of constipation” value ([7]; 10 mg/kg po 1 h after loperamide or scopolamine) of the same compound?
A: not effective

Q: And the “stool output, pellet number and water content compared to lubiprostone and linaclotide” value ([7]; J027 10 mg/kg vs 0.5 mg/kg comparators, oral)?
A: more effective in increasing stool output, pellet number and water content

Q: And the solubility [8]?
A: ~20 µM (≈ 7.45 µg/mL)

Q: What about the “stool weight, pellet number and water content” value ([9]; 10 mg/kg ip, loperamide-treated mice, 3 h stool) of the same compound?
A: normalized each of the stool parameters

Q: What about the “stool output and water content, oral” value ([9]; 10 mg/kg oral 1 h prior to loperamide) of the same compound?
A: normalized stool output and water content; also recorded: effective in normalizing stool output and water content

Q: What about the “stool output and water content after chronic administration” value ([9]; 10 mg/kg oral for 7 days, loperamide 1 h after final dose) of the same compound?
A: remained effective in normalizing stool output and water content

Q: And the “stool output in control mice, oral” value ([9]; 10 mg/kg oral, control mice)?
A: no effect in control mice

Q: What about the ED50 ([9]; ip, read-out: ED50, ip administration, loperamide model, ip) of the same compound?
A: 2 mg/kg

Q: What about the ED50 ([9]; po, read-out: ED50, oral administration, loperamide model, oral 1 h before loperamide) of the same compound?
A: ~0.5 mg/kg

Q: What about the “effect on stool parameters in cystic fibrosis mice” value ([9]; cystic fibrosis mice lacking functional CFTR) of the same compound?
A: without effect

Q: What about the “stool output and water content in control mice” value ([9]; ip, non-loperamide-treated mice) of the same compound?
A: did not affect stool output or water content

Q: What about the duration of effect ([9]; mice) of the same compound?
A: 3 to 4 h
